Experimental data published in patent US4398937A, “Selective algaecides for control of cyanochloronta” (The University of Southern Mississippi, priority 1981, dated 1983).

How the values were obtained:
[1] = system: Chlorella; assay: Selective effect on algae in test tubes (Table V), Chlorella; assay type: cell-based; settings: for cells/ml: 13 days after innoculation, average of 3 samples
Protocol: (§1) Another laboratory experiment was run to further substantiate the selective effect of one of the algaecides, potassium ricinoleate. Two species of blue-green algae, Lyngbya and Cylindrospermum, and three species of green algae, Chlorella, Haematococcus and Stigeoclonium and Tribonema, a yellow-green alga of the division Chrysophycophyta, were treated as follows: Twenty ml test tubes of sterile BBM culture solution were innoculated with each alga. All species of algae were evaluated with three groups, control, 2.5 ppm algaecide and 7.5 ppm algaecide. Each group was run with triplicate samples.
(§2) Controls were counted 6 days after innoculation, algaecide was added to the treatment groups seven days after innoculation and all test tubes were counted thirteen days after innoculation. The results are shown in Table V. After seven days, there was a 31% reduction in the Lyngbya cultures at 2.5 ppm algaecide and a 40% reduction at 7.5 ppm. After seven days, there was a 60% reduction in Cylindrospermum cultures at 2.5 ppm algaecide and a 72% reduction at 7.5 ppm. […] After thirteen days, there was a 55% reduction in numbers at both 2.5 ppm and 7.5 ppm. After twenty days there was a 27% reduction at both concentrations. […] They are, like blue-green algae, often associated with taste and odor problems.

[2] = system: zooplankton; assay: Field Experiment III, pond, zooplankton; assay type: in vivo; settings: 2 ppm on 6/9/81
Protocol: (§3) In Field Experiment III, a small two acre pond was monitored for a complete year for plankton organisms as before. Oscillatoria and Microcystis were usually the prevalent blue-green algae. On 6/9/81 the pond was experiencing a bloom consisting completely of Oscillatoria. Channel catfish from the ponds had the characteristic earthy, musty taste and odor of 4 and 4 respectively on the 0 to 5 scale. The pond was treated on this date with 2 ppm potassium ricinoleate, one of the selective algaecides, as before.

[3] = in vivo
[4] = system: zooplankton; assay: Field Experiment II, catfish pond, zooplankton; assay type: in vivo; settings: 2 ppm
[5] = system: blue-green algae; assay: Field Experiment I, catfish pond, blue-green algae; assay type: in vivo, blue-green algae (mainly Microcystis sp.); settings: 10 ppm
Protocol: (§4) 1, 1980, to Mar. 19, 1981.
(§5) On July 30, 1980, most ponds had numbers of blue-green algae exceeding 2×10^6 cells/liter. These algae were predominantly Oscillatoria,Microcystis and Anacystis with smaller numbers of Nostoc, Anabaena and Lyngbya. The experimental pond had 1.2×10^6 cells/liter composed mainly of Microcystis sp. Large numbers of copepods and rotifers were present. On July 30, the pond was treated with 10 ppm potassium ricinoleate by distributing a 30% aqueous solution evenly through the water column by pump from a small boat. […] This is further substantiated by the dry weights and chlorophyll a levels.

[6] = system: Tribonema; assay: Selective effect on algae in test tubes (Table V), Tribonema; assay type: cell-based; settings: for cells/ml: average of 3 samples
Protocol: as §1, §2

[7] = system: Zooplankton; assay: Field Experiment I, catfish pond, zooplankton; assay type: in vivo, copepods and rotifers; settings: 10 ppm
Protocol: as §4, §5

[8] = system: Stigeoclonium; assay: Selective effect on algae in test tubes (Table V), Stigeoclonium; assay type: cell-based; settings: for cells/ml: 13 days after innoculation, average of 3 samples
Protocol: as §1, §2

[9] = system: Lyngbya; assay: Selective effect on algae in test tubes (Table V), Lyngbya; assay type: cell-based; settings: for cells/ml: 13 days after innoculation, average of 3 samples
Protocol: as §1, §2

[10] = system: Fish (adult catfish); assay: Field Experiment II, taste and odor of fish; assay type: in vivo; settings: for Fish Odor / Fish Taste: 2 ppm on 5/26/81
[11] = system: bluegill fingerlings; assay: Toxicity to bluegill fingerlings; assay type: in vivo; settings: 5, 10, 15, 20, 30 and 35 ppm
Protocol: An additional experiment was conducted on live bluegill fingerlings at 5, 10, 15, 20, 30 and 35 ppm of the algaecide.

[12] = system: Channel catfish; assay: Field Experiment III, taste and odor of channel catfish; assay type: in vivo; settings: 2 ppm on 6/9/81; June 22
Protocol: as §3

[13] = 2.5 and 7.5 ppm, after seven days
[14] = 7/31 post-treatment (treated July 30, 1980)
[15] = 11/21 post-treatment (normal winter reduction)
[16] = 168 h, read-out: reduction in cultures
[17] = scale 0 to 5 (5 worst, 0 undetectable), 6/1/81

With `CCCCCC[C@@H](O)C/C=C\CCCCCCCC(=O)[O-].[K+]` the “effect” value [1, 13] was “slightly inhibited”, the cells/ml ([1]; 2.5 ppm) was 44000 cells/ml and the cells/ml ([1]; 7.5 ppm) was 49000 cells/ml. The “Zoo #'s/liter” value ([2]; 6/10/81) was 2251 #'s/liter, the “Zoo #'s/liter” value ([2]; 6/12/81) was 4948 #'s/liter and the “Zoo #'s/liter” value ([2]; 6/22/81) was 4541 #'s/liter. For the same molecule, the “oxygen depletion problems” value [3] was “no oxygen depletion problems noted”, the “Zoo #'s/liter” value ([4]; 5/26/81 B post-treat, 4 p.m., Deep) was 755 #'s/liter and the “Zoo #'s/liter” value ([4]; 5/26/81 C post-treat, 4 p.m., Shallow) was 2270 #'s/liter. The “Zoo #'s/liter” value ([4]; 5/27/81 D, 9:40 p.m., Deep) was 0 #'s/liter, the “Zoo #'s/liter” value ([4]; 5/27/81 E, 9:40 p.m., Shallow) was 1510 #'s/liter and the “Zoo #'s/liter” value ([4]; 5/28/81 F, 7 a.m.) was 756 #'s/liter. For the same molecule, the “Zoo #'s/liter” value ([4]; 5/28/81 G, 11 a.m.) was 2270 #'s/liter, the “zooplankton after treatment” value ([4]; through June, 1981) was “remained unchanged” and the “Cells/Liter of bluegreen algae” value [5, 14] was 3.2 × 10^5 Cells/Liter. For the same molecule, the “Cells/Liter of bluegreen algae” value ([5]; 8/1 post-treatment) was 1.8 × 10^5 Cells/Liter, the “Cells/Liter of bluegreen algae” value ([5]; 8/6 post-treatment) was 1.0 × 10^5 Cells/Liter and the “Cells/Liter of bluegreen algae” value ([5]; 8/19 post-treatment) was 5.4 × 10^5 Cells/Liter. For the same molecule, the “Cells/Liter of bluegreen algae” value ([5]; 9/6 post-treatment) was 3.8 × 10^5 Cells/Liter, the “Cells/Liter of bluegreen algae” value ([5]; 9/23 post-treatment) was 1.9 × 10^6 Cells/Liter and the “Cells/Liter of bluegreen algae” value [5, 15] was 0 Cells/Liter. For the same molecule, the “Cells/Liter of bluegreen algae” value ([5]; 12/14 post-treatment) was 3.0 × 10^4 Cells/Liter, the blue-green algae killed ([5]; seven days after treatment) was 93% and the cells/ml ([6]; 2.5 ppm, 13 days after innoculation) was 5885 cells/ml. For the same molecule, the cells/ml ([6]; 2.5 ppm, 20 days after innoculation) was 10510 cells/ml, the cells/ml ([6]; 7.5 ppm, 13 days after innoculation) was 5335 cells/ml and the cells/ml ([6]; 7.5 ppm, 20 days after innoculation) was 10295 cells/ml. The reduction in numbers ([6]; both 2.5 ppm and 7.5 ppm, after thirteen days) was 55%, the reduction in numbers ([6]; both concentrations (2.5 and 7.5 ppm), after twenty days) was 27% and the “Zooplankton #/Liter” value [7, 14] was 2531 #/Liter. For the same molecule, the “Zooplankton #/Liter” value ([7]; 8/1 post-treatment) was 2500 #/Liter, the “Zooplankton #/Liter” value ([7]; 8/6 post-treatment) was 4050 #/Liter and the “Zooplankton #/Liter” value ([7]; 8/19 post-treatment) was 2025 #/Liter. The “Zooplankton #/Liter” value ([7]; 9/6 post-treatment) was 4050 #/Liter, the “Zooplankton #/Liter” value ([7]; 9/23 post-treatment) was 506 #/Liter and the “Zooplankton #/Liter” value [7, 15] was 1012 #/Liter. For the same molecule, the “Zooplankton #/Liter” value ([7]; 12/14 post-treatment) was 1518 #/Liter, the “numbers of zooplankton” value ([7]; seven days after treatment) was “essentially unchanged or increased in numbers” and the “effect” value [8, 13] was “remained unchanged”. For the same molecule, the cells/ml ([8]; 2.5 ppm) was 1900 cells/ml, the cells/ml ([8]; 7.5 ppm) was 1900 cells/ml and the cells/ml ([9]; 2.5 ppm) was 2340 cells/ml. For the same molecule, the cells/ml ([9]; 7.5 ppm) was 2010 cells/ml, the inhibition of growth at 2.5 ppm [9, 16] was 31% and the inhibition of growth at 7.5 ppm [9, 16] was 40%. The “Fish Odor” value [10, 17] was 2, the “Fish Taste” value [10, 17] was 3 and the “Fish Odor” value ([10]; scale 0 to 5, 6/5/81) was 1. The “Fish Taste” value ([10]; scale 0 to 5, 6/5/81) was 2, the “Fish Odor” value ([10]; scale 0 to 5, 6/12/81) was 1 and the “Fish Taste” value ([10]; scale 0 to 5, 6/12/81) was 1. The “Fish Odor” value ([10]; scale 0 to 5, 6/15/81) was 0, the “Fish Taste” value ([10]; scale 0 to 5, 6/15/81) was 0 and the “earthy musty taste and odor of fish” value ([10]; 2 ppm, over a three week period) was “eliminated”. The “fish survival” value [11] was “All bluegills survived” and the “earthy, musty taste and odor of sample fish” value [12] was “lost all of the earthy, musty taste and odor”.
